From PMC11345829, “Discovery of Potent Isoquinolinequinone N-Oxides to Overcome Cancer Multidrug Resistance” (Journal of Medicinal Chemistry, 2024)
Read-outs that look alike come from different tables or passages of the source.

How the values were obtained:
[1] = test system: NCI60 tumor cell line panel; assay: NCI60 five-dose screen, mean over panel; type: cell-based, human
From the text: (§1) The concentration−response curve generated enables the determination of three criteria, GI50 (drug concentration at which 50% of cell growth is inhibited), total growth inhibition (TGI) and LC50 (drug concentration at which 50% of tumor cells are killed) which can be used to compare effectiveness against any compound tested in the screen since its inception.
(§2) S2.1 NCI Screening Assay Experimental details
(§3) NCI Screening Assay Experimental: Cancer cell growth assays (NCI60 screening) 5,6 One-dose study: Tested compounds were initially solubilised in DMSO, diluted into RPMI 1640 and 5% fetal bovine serum/L-glutamine, and added to 96-well plates containing cell lines previously cultured for 24 h. After 48 h incubation, the media were removed, and the cells were fixed and stained with sulforhodamine B to determine overall percent growth/ total protein content. Unbound dye was removed with five washes of 1% acetic acid, and the plates were allowed to air dry. The dye was then resolubilised in Tris buffer, and the colorimetric absorbance was measured (515 nm). Growth inhibition was measured relative to the response generated from proliferating cells cultured under identical conditions for 48 h. Data from one-dose experiments pertains to the percentage growth at […]
(§4) Five-dose study: Serial 5 × 10-fold dilution from an initial DMSO stock solution was performed, prior to incubation at each individual concentration (10 nM, 100 nM, 1 μM, 10 μM and 100 μM). Using seven absorbance measurements (time zero (Tz), control growth (C), and test growth in the presence of drug at the five concentration levels (Ti)), the percentage growth was calculated at each of the drug concentrations levels. Percentage growth inhibition was calculated as: [(Ti − Tz)/(C − Tz)] × 100 for concentrations for which Ti ≥ Tz, [(Ti − Tz)/Tz] × 100 for concentrations for which Ti < Tz. Three dose response parameters were calculated for each experimental agent. […]
(§5) was calculated from [(Ti − Tz)/(C − Tz)] × 100 = 50, which is the drug concentration resulting in a 50% reduction in the net protein increase (as measured by sulforhodamine B staining) in control cells during the drug incubation. The drug concentration resulting in total growth inhibition (TGI) was calculated from Ti = Tz. The LC50 (concentration of drug resulting in a 50% reduction in the measured protein at the end of the drug treatment as compared to that at the beginning) indicating a net loss of cells following treatment was calculated from [(Ti − Tz)/Tz] × 100 = −50. Values were calculated for each of these three parameters if the level of activity was reached; however, if the effect was not reached or was exceeded, the value for that parameter was expressed as greater or less than the maximum or minimum concentration tested.

COLO-205 = assay: NCI60 five-dose GI50; type: cell-based; conditions: Homo sapiens, colon
From the text: as §1, §2, §3, §4, §5

K-562 = assay: NCI60 five-dose GI50; type: cell-based; conditions: Homo sapiens, K562, five dose; leukemia
From the text: as §1, §2, §3, §4, §5

LOX-IMVI = assay: NCI60 five-dose GI50; type: cell-based; conditions: Homo sapiens, melanoma
From the text: as §1, §2, §3, §4, §5

MCF-7 = assay: NCI60 five-dose GI50; type: cell-based; conditions: Homo sapiens, MCF7, breast
From the text: as §1, §2, §3, §4, §5

NCI-ADR/RES = assay: NCI60 five-dose GI50; type: cell-based; conditions: Homo sapiens
From the text: as §1, §2, §3, §4, §5

OVCAR-3 = assay: NCI60 five-dose GI50; type: cell-based; conditions: Homo sapiens, ovarian
From the text: as §1, §2, §3, §4, §5

UACC-62 = assay: NCI60 five-dose GI50; type: cell-based; conditions: Homo sapiens, melanoma
From the text: as §1, §2, §3, §4, §5

OVCAR-8 = assay: NCI60 five-dose GI50; type: cell-based; conditions: Homo sapiens, ovarian
From the text: as §1, §2
as §3, with “nm).” for “nm). Growth inhibition was measured relative to the response generated from proliferating cells cultured under identical conditions for 48 h. Data from one-dose experiments pertains to the percentage growth at”
as §4, §5

NCI-H460 = assay: NCI60 five-dose GI50 (NCI data); type: cell-based; conditions: Homo sapiens, NCI data provided for comparison, read-out: NSCLC NCI-H460 GI50 (NCI)
From the text: as §1, §2, §3, §4, §5

[2] = Homo sapiens, five dose, across 57-60 cell lines (number given per compound), read-out: Mean of GI50 as Log 10 Concentration (SD) (converted)
[3] = five dose, mean over 52 human tumor cell lines common to all analogues, read-out: mean GI50

SMILES	GI50 [1, 2]	GI50 [1, 3]	GI50 (COLO-205)	GI50 (K-562)	GI50 (LOX-IMVI)	GI50 (MCF-7)	GI50 (NCI-ADR/RES; MDR ovarian)	GI50 (OVCAR-3)	GI50 (UACC-62)	GI50 (OVCAR-8)	GI50 (NCI-H460)	share of FDA approved anticancer agents outperformed in mean LC50 ([1]; comparison with ref 45)	share of FDA approved anticancer agents with higher mean GI50 ([1]; comparison with ref 45)	cell lines with ≤200 nM GI50 ([1]; five dose, number of cell lines out of 60)	GI50 (NCI-ADR/RES)	fold more potent average GI50 than 1 ([1]; 2 versus 1)
COC(=O)c1c2c(c[n+]([O-])c1C)C(=O)C=CC2=O [Compound 23]	2490 nM	2150 nM	1850 nM	2510 nM	1960 nM	1650 nM	3270 nM	320 nM	1810 nM	2930 nM	12800 nM	–	–	–	–	–
COC(=O)c1c2c(c(C)[n+]([O-])c1C)C(=O)C(NCc1ccc(F)cc1)=CC2=O [Compound 4]	1410 nM	1540 nM	376 nM	2430 nM	1940 nM	1110 nM	1680 nM	319 nM	1250 nM	1590 nM	792 nM	–	–	–	–	–
COC(=O)c1c2c(c(C)[n+]([O-])c1C)C(=O)C(NCc1ccc(O)cc1)=CC2=O [Compound 20]	1310 nM	1580 nM	579 nM	1630 nM	938 nM	416 nM	2200 nM	266 nM	1360 nM	1080 nM	1580 nM	–	–	–	–	–
COC(=O)c1c2c(c[n+]([O-])c1C)C(=O)C=C(NCc1ccccc1)C2=O [Compound 25]	190 nM	210 nM	160 nM	250 nM	190 nM	150 nM	230 nM	48 nM	160 nM	240 nM	210 nM	86%	83%	31/60	227 nM	–
COC(=O)c1c2c(c(C)[n+]([O-])c1C)C(=O)C=C(NCc1ccccc1)C2=O [Compound 2]	–	–	–	–	–	–	–	–	–	–	2740 nM	–	–	–	–	2.8 fold
COC(=O)c1c2c(c(C)[n+]([O-])c1C)C(=O)C=C(NCc1ccc(F)cc1)C2=O [Compound 5]	583 nM	760 nM	260 nM	352 nM	226 nM	296 nM	487 nM	240 nM	229 nM	406 nM	525 nM	–	–	–	–	–
COC(=O)c1c2c(c[n+]([O-])c1C)C(=O)C(NCc1ccccc1)=CC2=O [Compound 24]	579 nM	690 nM	330 nM	620 nM	300 nM	200 nM	310 nM	270 nM	350 nM	320 nM	383 nM	–	–	–	–	–
